From PubChem BioAssay AID1963843 (Molecular Pharmacology Branch, DTP, NCI, 2024)

Test system: 616215-338-R-J1-PDC complex spheroid viability
Assay: Anticancer human tumor 616215-338-R-J1-PDC patient-derived colon adenocarcinoma cell line growth inhibition [POLQ]
Details: for IC50: curve of first compound; for viability, T/C: stronger effect = lower value
Method in brief: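 Patient-derived tumour cells were co-cultured with HUVEC and mesenchymal stem cells as multicellular spheroids at 37 °C. They were treated with POLQ inhibitors (novobiocin, ART-558, RP6685) alone or combined with other agents. Top concentrations were at or near clinical Cmax (otherwise 10 microM; SN-38 at 1 microM), decreasing in half-log steps.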

[1] = second compound 0.0316 µM, first compound 0.0316 µM
[2] = second compound 0.0316 µM, first compound 0.1 µM
[3] = second compound 0.0316 µM, first compound 0.316 µM
[4] = second compound 0.0316 µM, first compound 1 µM
[5] = second compound 0.0316 µM, first compound 3.16 µM
[6] = second compound 0.0316 µM, first compound 10 µM
[7] = second compound 0.1 µM, first compound 0.0316 µM
[8] = second compound 0.1 µM, first compound 0.1 µM
[9] = second compound 0.1 µM, first compound 0.316 µM
[10] = second compound 0.1 µM, first compound 1 µM
[11] = second compound 0.1 µM, first compound 3.16 µM
[12] = second compound 0.1 µM, first compound 10 µM
[13] = second compound 0.316 µM, first compound 0.0316 µM
[14] = second compound 0.316 µM, first compound 0.1 µM
[15] = second compound 0.316 µM, first compound 0.316 µM
[16] = second compound 0.316 µM, first compound 1 µM
[17] = second compound 0.316 µM, first compound 3.16 µM
[18] = second compound 0.316 µM, first compound 10 µM
[19] = second compound 1 µM, first compound 0.0316 µM
[20] = second compound 1 µM, first compound 0.1 µM
[21] = second compound 1 µM, first compound 0.316 µM
[22] = second compound 1 µM, first compound 1 µM
[23] = second compound 1 µM, first compound 3.16 µM
[24] = second compound 1 µM, first compound 10 µM
[25] = second compound 3.16 µM, first compound 0.0316 µM
[26] = second compound 3.16 µM, first compound 0.1 µM
[27] = second compound 3.16 µM, first compound 0.316 µM
[28] = second compound 3.16 µM, first compound 1 µM
[29] = second compound 3.16 µM, first compound 3.16 µM
[30] = second compound 3.16 µM, first compound 10 µM
[31] = second compound 10 µM, first compound 0.0316 µM
[32] = second compound 10 µM, first compound 0.1 µM
[33] = second compound 10 µM, first compound 0.316 µM
[34] = second compound 10 µM, first compound 1 µM
[35] = second compound 10 µM, first compound 3.16 µM
[36] = second compound 10 µM, first compound 10 µM
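Note: spheroids exposed to compounds for one week before readout.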
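Throughout, for viability, T/C: percent viability relative to DMSO vehicle wells taken as 100%.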

## COc1cc2cc(C(=O)CCC(=O)O)sc2cc1OC + Cc1cccc(N(C)C(=O)C2C(O)CCN2c2nc(C)cc(C(F)(F)F)c2C#N)c1
Second compound 0.0316 µM
  IC50: > 10 µM
Second compound 0.1 µM
  IC50: > 10 µM
Second compound 0.316 µM
  IC50: > 10 µM
Second compound 1 µM
  IC50: > 10 µM
Second compound 3.16 µM
  IC50: > 10 µM
Second compound 10 µM
  IC50: > 10 µM
[1]
  viability, T/C: 99.9%
[2]
  viability, T/C: 99.6%
[3]
  viability, T/C: 92%
[4]
  viability, T/C: 104%
[5]
  viability, T/C: 117%
[6]
  viability, T/C: 95.9%
[7]
  viability, T/C: 100%
[8]
  viability, T/C: 109%
[9]
  viability, T/C: 109%
[10]
  viability, T/C: 108%
[11]
  viability, T/C: 116%
[12]
  viability, T/C: 102%
[13]
  viability, T/C: 96%
[14]
  viability, T/C: 103%
[15]
  viability, T/C: 102%
[16]
  viability, T/C: 109%
[17]
  viability, T/C: 103%
[18]
  viability, T/C: 101%
[19]
  viability, T/C: 105%
[20]
  viability, T/C: 101%
[21]
  viability, T/C: 95.2%
[22]
  viability, T/C: 107%
[23]
  viability, T/C: 106%
[24]
  viability, T/C: 92.4%
[25]
  viability, T/C: 110%
[26]
  viability, T/C: 102%
[27]
  viability, T/C: 104%
[28]
  viability, T/C: 102%
[29]
  viability, T/C: 112%
[30]
  viability, T/C: 99.3%
[31]
  viability, T/C: 109%
[32]
  viability, T/C: 102%
[33]
  viability, T/C: 99.6%
[34]
  viability, T/C: 98.3%
[35]
  viability, T/C: 119%
[36]
  viability, T/C: 85.1%

## O=C(Nc1ccc(O)c(NS(=O)(=O)c2ccc(F)cc2)c1)c1ccc(-c2ccccc2)cc1 + Cc1cccc(N(C)C(=O)C2C(O)CCN2c2nc(C)cc(C(F)(F)F)c2C#N)c1
Second compound 0.0316 µM
  IC50: > 10 µM
Second compound 0.1 µM
  IC50: > 10 µM
Second compound 0.316 µM
  IC50: > 10 µM
Second compound 1 µM
  IC50: 6.74 µM
Second compound 3.16 µM
  IC50: 8.18 µM
Second compound 10 µM
  IC50: 7.24 µM
[1]
  viability, T/C: 109%
[2]
  viability, T/C: 105%
[3]
  viability, T/C: 103%
[4]
  viability, T/C: 93.7%
[5]
  viability, T/C: 101%
[6]
  viability, T/C: 72.5%
[7]
  viability, T/C: 109%
[8]
  viability, T/C: 95.7%
[9]
  viability, T/C: 108%
[10]
  viability, T/C: 114%
[11]
  viability, T/C: 96.5%
[12]
  viability, T/C: 76.1%
[13]
  viability, T/C: 95.2%
[14]
  viability, T/C: 117%
[15]
  viability, T/C: 92.1%
[16]
  viability, T/C: 108%
[17]
  viability, T/C: 103%
[18]
  viability, T/C: 73%
[19]
  viability, T/C: 98.3%
[20]
  viability, T/C: 99.8%
[21]
  viability, T/C: 107%
[22]
  viability, T/C: 96.6%
[23]
  viability, T/C: 82%
[24]
  viability, T/C: 33.4%
[25]
  viability, T/C: 117%
[26]
  viability, T/C: 106%
[27]
  viability, T/C: 95.3%
[28]
  viability, T/C: 88.1%
[29]
  viability, T/C: 95.4%
[30]
  viability, T/C: 40.5%
[31]
  viability, T/C: 108%
[32]
  viability, T/C: 102%
[33]
  viability, T/C: 91.8%
[34]
  viability, T/C: 93.1%
[35]
  viability, T/C: 87.2%
[36]
  viability, T/C: 35.8%

## COc1cccc2c1C(=O)c1c(O)c3c(c(O)c1C2=O)CC(O)(C(=O)CO)CC3OC1CC(N)C(O)C(C)O1 (stereo unspecified) + Nc1ccc(C#CCN(C(=O)Cc2ncc(C(F)(F)F)cc2C(F)(F)F)c2ccc(F)cc2)nn1
Second compound 0.0316 µM
  IC50: 0.124 µM
Second compound 0.1 µM
  IC50: < 0.0316 µM
Second compound 0.316 µM
  IC50: 0.0892 µM
Second compound 1 µM
  IC50: 0.0792 µM
Second compound 3.16 µM
  IC50: 0.0584 µM
Second compound 10 µM
  IC50: < 0.0316 µM
[1]
  viability, T/C: 53.5%
[2]
  viability, T/C: 50.3%
[3]
  viability, T/C: 43.8%
[4]
  viability, T/C: 20.9%
[5]
  viability, T/C: 1.47%
[6]
  viability, T/C: 1.5%
[7]
  viability, T/C: 52%
[8]
  viability, T/C: 46.5%
[9]
  viability, T/C: 42.4%
[10]
  viability, T/C: 26.1%
[11]
  viability, T/C: 1.84%
[12]
  viability, T/C: 0.12%
[13]
  viability, T/C: 61.7%
[14]
  viability, T/C: 41.8%
[15]
  viability, T/C: 40.4%
[16]
  viability, T/C: 22.4%
[17]
  viability, T/C: 0.9%
[18]
  viability, T/C: 0.55%
[19]
  viability, T/C: 65.2%
[20]
  viability, T/C: 40.4%
[21]
  viability, T/C: 35.9%
[22]
  viability, T/C: 23.1%
[23]
  viability, T/C: 2.85%
[24]
  viability, T/C: 0.37%
[25]
  viability, T/C: 52.8%
[26]
  viability, T/C: 48%
[27]
  viability, T/C: 35.2%
[28]
  viability, T/C: 23.5%
[29]
  viability, T/C: 1.29%
[30]
  viability, T/C: 0.18%
[31]
  viability, T/C: 46.3%
[32]
  viability, T/C: 38.1%
[33]
  viability, T/C: 27.4%
[34]
  viability, T/C: 14.9%
[35]
  viability, T/C: 0.84%
[36]
  viability, T/C: 0.33%
